For experiment [1], the target named is T1, human PTH-1 receptors (Homo sapiens, UniProt Q03431).
T1 construct: expressed in transfected cells
T1 sequence (Q03431 27-593): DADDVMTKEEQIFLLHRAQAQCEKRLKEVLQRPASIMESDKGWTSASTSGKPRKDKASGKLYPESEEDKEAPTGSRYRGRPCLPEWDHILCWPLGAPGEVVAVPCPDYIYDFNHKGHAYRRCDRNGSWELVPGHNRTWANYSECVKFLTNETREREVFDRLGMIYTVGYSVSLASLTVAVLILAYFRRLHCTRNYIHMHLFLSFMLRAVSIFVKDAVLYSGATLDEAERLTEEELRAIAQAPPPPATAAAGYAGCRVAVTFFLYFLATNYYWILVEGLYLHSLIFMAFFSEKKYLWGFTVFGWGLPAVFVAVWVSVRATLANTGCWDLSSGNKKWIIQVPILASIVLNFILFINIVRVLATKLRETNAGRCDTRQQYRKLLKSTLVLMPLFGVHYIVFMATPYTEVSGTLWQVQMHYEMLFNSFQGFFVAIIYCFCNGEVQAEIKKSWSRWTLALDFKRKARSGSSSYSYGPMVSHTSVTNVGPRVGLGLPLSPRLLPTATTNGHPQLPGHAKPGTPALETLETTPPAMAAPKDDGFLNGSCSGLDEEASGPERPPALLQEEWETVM
Put plainly: Intracellular cAMP accumulation (adenylyl cyclase, AC, activation) in HKRK B7 cells. Format: cell-based. The note with it: HKRK B7 cells; for AC activation (cAMP accumulation), result in words: compared with hPTH-(1-34) or parent peptide. Here is the method: HKRK B7 or EW5 cells (32), subclones of LLC-PKI renal epithelial cells that stably express human or rat PTH-1 receptors (950,000 and 320,000 receptors/cell, respectively), were maintained under 5% CO2 in air in Dulbecco's modified essential medium containing 7% fetal bovine serum (FBS) and 1% penicillin/streptomycin (GIBCO-BRL, Grand Island, N.Y.). HEK-293 and COS-7 cells were cultured similarly, except that 10% FBS was used in the medium. Cells were seeded into 24-well plates two days before assay at a density of 2-2.5×10^5 cells/well (HKRK B7 or EW 5 cells) or 6×10^5 cells/well (in 6-well plates) (HEK-293 cells). In experiments involving HEK-293 cells, DNA transfections were performed 24 hr after plating and inositol radiolabel was added 24 hr thereafter (see below). COS-7 cell transfections were performed as previously described (Gardella, T. J., et al., Endocrinology 132(5):2024-2030 (1993)) Intracellular cAMP accumulation, PLC activation and PTHR binding affinity were measured as previously reported (Bringhurst, F. R., et al., Endocrinology 132(5):2090-2098 (1993); Guo, J., et al., Endocrinology 136(9):3884-3891 (1995)). Intracellular cAMP accumulation was measured in extracts of cells that were exposed to human PTH peptides in the presence of isobutylmethyxanthine (IBMX, 1 mM) at 37° C. for 15 min. After terminating the reactions by aspiration and freezing in liquid nitrogen, cell monolayers were extracted with 50 mM HCl and cAMP was measured using a radioimmunoassay kit (Dupont-New England Nuclear, Boston, Mass.).
On the technique in general: cAMP levels reflect the balance of adenylyl cyclase and phosphodiesterase activity.

Experiment [2] has as its target T2, rat PTH-1 receptors (Rattus norvegicus, UniProt P25961).
T2 construct: expressed in transfected cells
T2 sequence (P25961 27-591): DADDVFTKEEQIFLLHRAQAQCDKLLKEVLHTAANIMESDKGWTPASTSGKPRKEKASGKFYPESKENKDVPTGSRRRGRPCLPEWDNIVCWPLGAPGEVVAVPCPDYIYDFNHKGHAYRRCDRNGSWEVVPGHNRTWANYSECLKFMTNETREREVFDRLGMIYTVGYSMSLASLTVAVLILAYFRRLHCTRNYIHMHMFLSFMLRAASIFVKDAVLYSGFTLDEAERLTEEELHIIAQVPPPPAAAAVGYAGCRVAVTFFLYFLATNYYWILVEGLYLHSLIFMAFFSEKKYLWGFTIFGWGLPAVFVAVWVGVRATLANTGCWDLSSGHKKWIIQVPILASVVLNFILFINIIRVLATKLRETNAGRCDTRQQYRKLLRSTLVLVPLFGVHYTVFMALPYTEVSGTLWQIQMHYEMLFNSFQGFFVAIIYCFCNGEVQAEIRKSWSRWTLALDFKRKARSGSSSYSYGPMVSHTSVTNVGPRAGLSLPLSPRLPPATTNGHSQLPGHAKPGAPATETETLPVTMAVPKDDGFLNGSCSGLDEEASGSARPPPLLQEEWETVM
The experiment can be described thus: AC activation (cAMP) in EW5 cells. Format: cell-based. As for the experimental part: HKRK B7 or EW5 cells (32), subclones of LLC-PKI renal epithelial cells that stably express human or rat PTH-1 receptors (950,000 and 320,000 receptors/cell, respectively), were maintained under 5% CO2 in air in Dulbecco's modified essential medium containing 7% fetal bovine serum (FBS) and 1% penicillin/streptomycin (GIBCO-BRL, Grand Island, N.Y.). HEK-293 and COS-7 cells were cultured similarly, except that 10% FBS was used in the medium. Cells were seeded into 24-well plates two days before assay at a density of 2-2.5×10^5 cells/well (HKRK B7 or EW 5 cells) or 6×10^5 cells/well (in 6-well plates) (HEK-293 cells). […]
Intracellular cAMP accumulation, PLC activation and PTHR binding affinity were measured as previously reported (Bringhurst, F. R., et al., Endocrinology 132(5):2090-2098 (1993); Guo, J., et al., Endocrinology 136(9):3884-3891 (1995)). Intracellular cAMP accumulation was measured in extracts of cells that were exposed to human PTH peptides in the presence of isobutylmethyxanthine (IBMX, 1 mM) at 37° C. for 15 min. After terminating the reactions by aspiration and freezing in liquid nitrogen, cell monolayers were extracted with 50 mM HCl and cAMP was measured using a radioimmunoassay kit (Dupont-New England Nuclear, Boston, Mass.). […]

No end group written: not given here.

As to “GVSEIQLMHNLGKHLNSMRRVEWLRKKL [[Gly^1,Arg^19]hPTH-(1-28)]”, the “AC activation (cAMP accumulation), result in words” value in experiment [1] was “indistinguishable from that of hPTH-(1-34) and equivalent to that by hPTH(1-34) and full”. For the same substance, the “fold impairment of EC50 for AC at the rat PTH-1 receptor relative to hPTH-(1-34)” value in experiment [2] is “about 6 fold”.

Usually EC50 stands for the concentration giving half of the maximal effect. A higher EC50 goes with lower potency in that assay. Take “SVSEIQLMHNLGKHLNSMERVEWLRKKL-NH2 [hPTH-(1-28)]”: in experiment [1], the EC50 came out at 1 nM and the “AC activation (cAMP accumulation), result in words” value was “as effectively as did hPTH-(1-34)”. Further, the “signaling (AC) via rat PTH-1 receptors, result in words” value in experiment [2] (compared with human PTH-1 receptor) is reported as “more severely impaired”.

Values taken from US7479478B2, “Human parathyroid hormone modifications, preparation and use” (The General Hospital Corporation, priority 1998, dated 2009).
